Test results published in ChEMBL document CHEMBL3991601, “The target landscape of clinical kinase drugs” (Science, 2017).
The source made the active and inactive calls.

Tests used:
[1] = biological target: Cyclin-dependent kinase 7 (Homo sapiens, UniProt P50613)
[2] = biological target: Mitogen-activated protein kinase 10 (Homo sapiens, UniProt P53779)
[3] = biological target: T1, Mitogen-activated protein kinase 15 (Homo sapiens, UniProt Q8TD08)
T1 sequence (Q8TD08 whole entry): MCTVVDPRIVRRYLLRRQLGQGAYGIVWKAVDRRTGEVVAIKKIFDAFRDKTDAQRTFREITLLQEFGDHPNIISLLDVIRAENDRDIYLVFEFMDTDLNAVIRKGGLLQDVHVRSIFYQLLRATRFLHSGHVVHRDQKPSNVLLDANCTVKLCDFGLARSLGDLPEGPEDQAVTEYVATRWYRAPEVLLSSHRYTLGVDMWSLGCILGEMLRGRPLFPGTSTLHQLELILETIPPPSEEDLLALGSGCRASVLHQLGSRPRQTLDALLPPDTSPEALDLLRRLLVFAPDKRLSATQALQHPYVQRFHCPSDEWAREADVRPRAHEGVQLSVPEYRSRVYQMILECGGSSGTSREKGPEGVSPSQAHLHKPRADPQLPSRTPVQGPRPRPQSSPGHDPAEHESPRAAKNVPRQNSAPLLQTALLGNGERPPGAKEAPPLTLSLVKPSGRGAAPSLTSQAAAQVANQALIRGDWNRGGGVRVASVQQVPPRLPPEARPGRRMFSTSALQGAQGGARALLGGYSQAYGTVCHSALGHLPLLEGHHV

[4] = biological target: T2, RNA cytidine acetyltransferase (Homo sapiens, UniProt Q9H0A0)
T2 sequence (Q9H0A0 whole entry): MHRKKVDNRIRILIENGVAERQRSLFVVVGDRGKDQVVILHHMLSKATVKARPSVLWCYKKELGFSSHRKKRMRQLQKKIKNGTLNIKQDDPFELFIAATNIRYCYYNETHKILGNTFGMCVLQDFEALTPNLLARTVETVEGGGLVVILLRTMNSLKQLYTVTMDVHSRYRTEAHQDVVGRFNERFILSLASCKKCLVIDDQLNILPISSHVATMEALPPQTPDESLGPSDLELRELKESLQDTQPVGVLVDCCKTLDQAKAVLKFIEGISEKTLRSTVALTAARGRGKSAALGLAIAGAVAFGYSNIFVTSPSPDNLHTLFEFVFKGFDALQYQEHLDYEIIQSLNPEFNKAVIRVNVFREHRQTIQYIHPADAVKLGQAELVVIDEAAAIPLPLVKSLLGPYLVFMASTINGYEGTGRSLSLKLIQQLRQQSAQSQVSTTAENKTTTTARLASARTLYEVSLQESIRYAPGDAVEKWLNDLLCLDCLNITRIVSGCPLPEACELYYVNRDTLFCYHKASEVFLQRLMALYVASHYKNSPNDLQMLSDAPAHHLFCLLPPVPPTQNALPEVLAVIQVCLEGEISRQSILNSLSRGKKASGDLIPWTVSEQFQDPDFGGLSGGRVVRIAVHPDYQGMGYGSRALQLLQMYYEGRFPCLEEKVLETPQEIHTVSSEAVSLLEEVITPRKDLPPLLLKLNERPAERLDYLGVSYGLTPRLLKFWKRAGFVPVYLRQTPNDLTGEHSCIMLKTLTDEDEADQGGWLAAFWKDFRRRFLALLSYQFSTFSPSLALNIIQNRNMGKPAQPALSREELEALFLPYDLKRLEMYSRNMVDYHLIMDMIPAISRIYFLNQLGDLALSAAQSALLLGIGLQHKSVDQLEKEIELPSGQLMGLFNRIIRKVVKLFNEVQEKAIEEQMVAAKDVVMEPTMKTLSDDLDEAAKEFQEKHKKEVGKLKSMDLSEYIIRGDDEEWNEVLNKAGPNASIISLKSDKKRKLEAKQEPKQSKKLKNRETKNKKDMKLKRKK

[5] = biological target: T3, Phosphatidylinositol 5-phosphate 4-kinase type-2 alpha (Homo sapiens, UniProt P48426)
T3 sequence (P48426 whole entry): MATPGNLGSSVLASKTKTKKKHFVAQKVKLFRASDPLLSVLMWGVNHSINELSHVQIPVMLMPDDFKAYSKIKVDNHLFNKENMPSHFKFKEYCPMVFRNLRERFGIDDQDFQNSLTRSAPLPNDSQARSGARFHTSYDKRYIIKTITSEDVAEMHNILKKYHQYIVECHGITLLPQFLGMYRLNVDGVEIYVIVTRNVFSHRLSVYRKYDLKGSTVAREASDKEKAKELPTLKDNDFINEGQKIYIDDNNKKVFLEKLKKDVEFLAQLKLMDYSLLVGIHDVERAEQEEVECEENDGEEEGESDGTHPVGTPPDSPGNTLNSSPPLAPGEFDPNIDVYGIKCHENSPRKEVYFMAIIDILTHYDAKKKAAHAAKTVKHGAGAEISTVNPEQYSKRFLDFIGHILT

[6] = biological target: Non-receptor tyrosine-protein kinase TYK2 (Homo sapiens, UniProt P29597)
[7] = biological target: T4, Uncharacterized protein FLJ45252 (Homo sapiens, UniProt Q6ZSR9); conditions: read-out: Kd apparent; k-562, colo 205, sk-n-be(2) and mv-4-11
T4 sequence (Q6ZSR9 whole entry): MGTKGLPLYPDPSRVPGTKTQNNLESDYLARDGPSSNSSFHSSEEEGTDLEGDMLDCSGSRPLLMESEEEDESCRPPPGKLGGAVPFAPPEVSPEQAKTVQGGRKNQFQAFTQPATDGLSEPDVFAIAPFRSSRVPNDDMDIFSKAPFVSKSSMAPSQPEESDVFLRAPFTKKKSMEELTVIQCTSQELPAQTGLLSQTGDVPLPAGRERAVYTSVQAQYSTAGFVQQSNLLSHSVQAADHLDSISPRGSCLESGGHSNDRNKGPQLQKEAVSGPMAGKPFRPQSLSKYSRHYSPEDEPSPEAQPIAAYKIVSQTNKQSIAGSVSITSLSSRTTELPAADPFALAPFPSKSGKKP

[8] = biological target: Ribosomal protein S6 kinase beta-1 (Homo sapiens, UniProt P23443)
Also: in the data inactive means no Kd found up to 30 µM.

Sequence of Ribosomal protein S6 kinase beta-1 (P23443 whole entry): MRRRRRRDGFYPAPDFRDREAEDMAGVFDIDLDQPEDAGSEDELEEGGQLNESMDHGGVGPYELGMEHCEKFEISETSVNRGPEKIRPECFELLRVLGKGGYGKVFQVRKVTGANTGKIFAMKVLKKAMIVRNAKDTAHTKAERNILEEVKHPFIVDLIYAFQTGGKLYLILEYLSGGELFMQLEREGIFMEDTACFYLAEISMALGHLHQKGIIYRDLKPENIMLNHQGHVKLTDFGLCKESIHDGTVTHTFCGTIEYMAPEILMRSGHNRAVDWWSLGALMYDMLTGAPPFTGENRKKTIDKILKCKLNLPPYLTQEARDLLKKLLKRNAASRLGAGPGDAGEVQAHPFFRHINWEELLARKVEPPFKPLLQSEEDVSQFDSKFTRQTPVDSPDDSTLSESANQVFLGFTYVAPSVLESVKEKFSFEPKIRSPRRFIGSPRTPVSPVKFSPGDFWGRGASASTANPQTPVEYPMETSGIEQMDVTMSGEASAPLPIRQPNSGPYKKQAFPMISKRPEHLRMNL
Sequence of Cyclin-dependent kinase 7 (P50613 whole entry): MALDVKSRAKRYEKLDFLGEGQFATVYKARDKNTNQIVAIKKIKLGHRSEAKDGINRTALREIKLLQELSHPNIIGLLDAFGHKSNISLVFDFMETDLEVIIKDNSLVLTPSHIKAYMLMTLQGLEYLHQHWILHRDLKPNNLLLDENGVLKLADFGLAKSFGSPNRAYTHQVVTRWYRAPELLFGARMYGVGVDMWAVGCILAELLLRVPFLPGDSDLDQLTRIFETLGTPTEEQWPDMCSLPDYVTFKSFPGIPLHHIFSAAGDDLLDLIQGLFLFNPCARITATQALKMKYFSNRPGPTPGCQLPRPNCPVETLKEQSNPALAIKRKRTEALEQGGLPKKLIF
Sequence of Mitogen-activated protein kinase 10 (P53779 whole entry): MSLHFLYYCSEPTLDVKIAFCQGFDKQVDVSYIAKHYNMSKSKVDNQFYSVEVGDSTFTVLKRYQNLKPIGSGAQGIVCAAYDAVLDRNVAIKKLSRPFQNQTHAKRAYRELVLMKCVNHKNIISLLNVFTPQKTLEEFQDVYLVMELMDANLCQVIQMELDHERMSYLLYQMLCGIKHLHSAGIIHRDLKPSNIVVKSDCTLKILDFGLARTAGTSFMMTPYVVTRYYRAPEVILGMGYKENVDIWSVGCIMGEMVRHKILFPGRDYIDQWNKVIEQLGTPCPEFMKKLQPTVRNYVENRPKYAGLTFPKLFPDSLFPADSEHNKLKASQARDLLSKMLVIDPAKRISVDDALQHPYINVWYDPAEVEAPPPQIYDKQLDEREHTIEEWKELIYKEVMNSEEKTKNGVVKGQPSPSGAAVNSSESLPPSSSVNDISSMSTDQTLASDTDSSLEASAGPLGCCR
Sequence of Non-receptor tyrosine-protein kinase TYK2 (P29597 whole entry): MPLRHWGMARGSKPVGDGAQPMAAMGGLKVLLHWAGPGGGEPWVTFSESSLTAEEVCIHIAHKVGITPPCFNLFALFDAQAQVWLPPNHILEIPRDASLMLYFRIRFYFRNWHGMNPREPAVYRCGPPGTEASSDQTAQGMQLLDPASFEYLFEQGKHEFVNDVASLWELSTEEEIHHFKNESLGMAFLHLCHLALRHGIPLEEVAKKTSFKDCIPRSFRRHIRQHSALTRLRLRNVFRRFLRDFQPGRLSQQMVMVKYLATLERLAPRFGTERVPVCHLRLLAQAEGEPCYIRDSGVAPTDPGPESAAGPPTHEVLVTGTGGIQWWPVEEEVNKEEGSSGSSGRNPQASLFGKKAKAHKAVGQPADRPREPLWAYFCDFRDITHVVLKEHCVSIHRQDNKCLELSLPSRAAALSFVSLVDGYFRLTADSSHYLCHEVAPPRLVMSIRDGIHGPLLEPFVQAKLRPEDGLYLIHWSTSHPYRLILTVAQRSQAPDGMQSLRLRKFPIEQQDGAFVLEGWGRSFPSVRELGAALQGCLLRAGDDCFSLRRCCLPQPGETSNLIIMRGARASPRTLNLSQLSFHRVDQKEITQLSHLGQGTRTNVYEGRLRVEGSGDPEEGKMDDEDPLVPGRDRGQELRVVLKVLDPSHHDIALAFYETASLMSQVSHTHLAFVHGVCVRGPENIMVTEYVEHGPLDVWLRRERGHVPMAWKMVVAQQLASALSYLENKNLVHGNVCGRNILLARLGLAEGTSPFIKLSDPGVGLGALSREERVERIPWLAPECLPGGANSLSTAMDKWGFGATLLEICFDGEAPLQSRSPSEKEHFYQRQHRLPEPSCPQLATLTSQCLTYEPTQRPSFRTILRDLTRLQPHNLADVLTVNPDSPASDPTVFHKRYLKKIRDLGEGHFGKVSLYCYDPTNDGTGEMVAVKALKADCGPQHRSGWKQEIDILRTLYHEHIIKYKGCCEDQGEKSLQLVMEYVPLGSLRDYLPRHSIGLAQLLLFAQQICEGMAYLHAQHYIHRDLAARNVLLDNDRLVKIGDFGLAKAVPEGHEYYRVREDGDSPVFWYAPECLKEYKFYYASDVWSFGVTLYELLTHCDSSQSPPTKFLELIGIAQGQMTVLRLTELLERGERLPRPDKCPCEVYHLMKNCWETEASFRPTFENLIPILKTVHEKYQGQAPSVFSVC

SMILES	Kd [1]	Kd [2]	Kd [3]	Kd [4]	Kd [5]	Kd [6]	Kd [7]	Kd [8]
O=c1[nH]c([C@@H]2CCCN2)nc2c1oc1ccc(Cl)cc12	> 30 µM (inactive)	> 30 µM (inactive)	> 30 µM (inactive)	> 30 µM (inactive)	> 30 µM (inactive)	> 30 µM (inactive)	> 30 µM (inactive)	
CCN1CCN(Cc2ccc(Nc3ncc(F)c(-c4cc(F)c5nc(C)n(C(C)C)c5c4)n3)nc2)CC1 [ABEMACICLIB]			> 30 µM (inactive)	> 30 µM (inactive)	> 30 µM (inactive)	> 30 µM (inactive)	0.088 µM (active)	> 30 µM (inactive)
Cc1c(NC(=O)OC[C@@H]2COCCN2)cn2ncnc(Nc3ccc4c(cnn4Cc4cccc(F)c4)c3)c12 [AC-480]	> 30 µM (inactive)	> 30 µM (inactive)	> 30 µM (inactive)	> 30 µM (inactive)		> 30 µM (inactive)	> 30 µM (inactive)	> 30 µM (inactive)
C=CCn1c(=O)c2cnc(Nc3ccc(N4CCN(C)CC4)cc3)nc2n1-c1cccc(C(C)(C)O)n1 [ADAVOSERTIB]		> 30 µM (inactive)	> 30 µM (inactive)	> 30 µM (inactive)		> 30 µM (inactive)	> 30 µM (inactive)	> 30 µM (inactive)
CN(C)C/C=C/C(=O)Nc1cc2c(Nc3ccc(F)c(Cl)c3)ncnc2cc1O[C@H]1CCOC1 [AFATINIB]				> 30 µM (inactive)	> 30 µM (inactive)		> 30 µM (inactive)	
S=C(NCc1ccc2c(c1)OCO2)N1CCN(c2ncnc3c2oc2ccccc23)CC1 [AMUVATINIB]	> 30 µM (inactive)		> 30 µM (inactive)	> 30 µM (inactive)	> 30 µM (inactive)	> 30 µM (inactive)	> 30 µM (inactive)	> 30 µM (inactive)
CCN(CCCOc1ccc2c(Nc3cc(CC(=O)Nc4cccc(F)c4)n[nH]3)ncnc2c1)CCOP(=O)(O)O [BARASERTIB]			> 30 µM (inactive)	> 30 µM (inactive)	> 30 µM (inactive)	> 30 µM (inactive)	> 30 µM (inactive)	> 30 µM (inactive)
C[C@@]1(C(=O)Nc2ccc(F)nc2)CCCN1c1nc(Nc2cc(C3CC3)n[nH]2)c2cccn2n1 [BMS-754807]				> 30 µM (inactive)	> 30 µM (inactive)		> 30 µM (inactive)	
CCOc1ccn(-c2ccc(F)cc2)c(=O)c1C(=O)Nc1ccc(Oc2ccnc(N)c2Cl)c(F)c1 [BMS-777607]	> 30 µM (inactive)	> 30 µM (inactive)	> 30 µM (inactive)	> 30 µM (inactive)	> 30 µM (inactive)			
COc1cc2c(Oc3ccc4[nH]c(C)cc4c3F)ncnc2cc1OCCCN1CCCC1 [CEDIRANIB]				> 30 µM (inactive)	> 30 µM (inactive)			
CC1(COc2ccc3c(c2)ncn3-c2ccc3cccc(N4CCC(N)CC4)c3n2)COC1 [CRENOLANIB]		> 30 µM (inactive)	> 30 µM (inactive)	> 30 µM (inactive)	> 30 µM (inactive)	> 30 µM (inactive)	> 30 µM (inactive)	> 30 µM (inactive)
Cn1c(=O)n(-c2ccc(C(C)(C)C#N)cc2)c2c3cc(-c4cnc5ccccc5c4)ccc3ncc21 [DACTOLISIB]			> 30 µM (inactive)	> 30 µM (inactive)	> 30 µM (inactive)	> 30 µM (inactive)	> 30 µM (inactive)	
CNC(=O)c1ccc(Nc2ncc(C(F)(F)F)c(NCc3nccnc3N(C)S(C)(=O)=O)n2)cc1 [DEFACTINIB]		> 30 µM (inactive)	> 30 µM (inactive)	> 30 µM (inactive)	> 30 µM (inactive)	> 30 µM (inactive)	> 30 µM (inactive)	> 30 µM (inactive)
O=S(=O)(c1cccc2cnccc12)N1CCCNCC1 [FASUDIL]		> 30 µM (inactive)	> 30 µM (inactive)	> 30 µM (inactive)	> 30 µM (inactive)		> 30 µM (inactive)	
COc1cc2ncnc3c2cc1OCCCCCN(C)Cc1ccc(Br)cc1N3 [JNJ-26483327]	> 30 µM (inactive)	> 30 µM (inactive)	> 30 µM (inactive)	> 30 µM (inactive)		> 30 µM (inactive)	> 30 µM (inactive)	
C[C@]1(O)C[C@@H](c2nc(-c3ccc4ccc(-c5ccccc5)nc4c3)c3c(N)nccn32)C1 [LINSITINIB]	> 30 µM (inactive)	> 30 µM (inactive)	> 30 µM (inactive)	> 30 µM (inactive)	> 30 µM (inactive)		> 30 µM (inactive)	
N#CCNC(=O)c1ccc(-c2ccnc(Nc3ccc(N4CCOCC4)cc3)n2)cc1 [MOMELOTINIB]	> 30 µM (inactive)		> 30 µM (inactive)	> 30 µM (inactive)	> 30 µM (inactive)			> 30 µM (inactive)
CC1(C)CNc2cc(NC(=O)c3cccnc3NCc3ccncc3)ccc21 [MOTESANIB]				> 30 µM (inactive)	> 30 µM (inactive)		> 30 µM (inactive)	
CN(c1ncccc1CNc1nc(Nc2ccc3c(c2)CC(=O)N3)ncc1C(F)(F)F)S(C)(=O)=O [PF-00562271]			1.47 µM	> 30 µM (inactive)	> 30 µM (inactive)		> 30 µM (inactive)	
Cn1cnc2c(F)c(Nc3ccc(Br)cc3Cl)c(C(=O)NOCCO)cc21 [SELUMETINIB]				> 30 µM (inactive)	> 30 µM (inactive)		0.807 µM (active)	
COc1cc2c(N3CCN(C(=O)Nc4ccc(OC(C)C)cc4)CC3)ncnc2cc1OCCCN1CCCCC1 [TANDUTINIB]				> 30 µM (inactive)	> 30 µM (inactive)		> 30 µM (inactive)	
O[C@H]1CC[C@H](Nc2ncc3nc(Nc4c(F)cc(F)cc4F)n([C@H]4CCOC4)c3n2)CC1 [TANZISERTIB]	> 30 µM (inactive)		> 30 µM (inactive)	> 30 µM (inactive)	> 30 µM (inactive)	> 30 µM (inactive)	> 30 µM (inactive)	> 30 µM (inactive)
NC(=O)c1ccc(N(C(N)=O)c2c(F)cccc2F)nc1-c1ccc(F)cc1F [VX-702]	> 30 µM (inactive)		> 30 µM (inactive)	> 30 µM (inactive)	> 30 µM (inactive)	> 30 µM (inactive)	> 30 µM (inactive)	> 30 µM (inactive)
